Assay results reported in article PMC9268166, “Modeling of Anticancer Sulfonamide Derivatives Lipophilicity by Chemometric and Quantitative Structure-Retention Relationships Approaches” (Molecules, 2022).

How the values were obtained:
[1] = IAM chromatography (IAM-HPLC), IAM.PC.DD2 column; assay type: physicochemical; details: for logkIAM: logkIAM = 0.045 CHIIAM + 0.42; for CHIIAM: pH 7.4, 30 °C, acetonitrile gradient; for CHI (CHIIAM), Table S2: IAM chromatography, from mean of three retention times
Source text: (§1) For this reason, the next step of our study concerns the characterization of investigated sulfonamide derivatives using a chromatographic approach. Generally, in RP-HPLC, the interactions between solutes and the stationary phase surface are mainly governed by lipophilicity. Consequently, RP-HPLC is the primary tool for assessing the lipophilicity of xenobiotics. […] Generally, the chemical character of target solutes determines interactions between the molecule and the stationary phase that may occur. Considering the large variety of RP-HPLC beds and differences in specific surface area, the energy of the sorbent’s intermolecular interactions between solutes and chemical structures, four different reversed-phase stationary phases and IAM column were investigated during this study. The lipophilicity index was presented as a logkw value, so the retention factor was extrapolated to the pure water after calculation using a protocol based on two gradient measurements and DryLab software.
(§2) Since the biomimetic chromatography experiments are carried out at physiological pH to compare obtained results, all chromatographic experiments have been carried out at pH 7.4. […] Consequently, the chromatography lipophilicity indices refer to the distribution coefficient (logD) values, which better reflect the lipophilicity of ionized substances under physiological conditions.
(§3) All HPLC experiments were carried out using a Prominence-1 LC-2030C 3D HPLC system (Shimadzu, Japan) equipped with a DAD detector and controlled by the LabSolution system (version 5.90 Shimadzu, Japan). The stock solutions of solutes were diluted to obtain 100 μg/mL concentrations, and the injected volume was 10 μL. During this study, six different columns in terms of chemical modification of stationary phases were used. Retention times (tR) of investigated sulfonamides were collected, and their detection in all systems was performed at the wavelength characteristic for each compound, summarized in Table S1. For all chromatography systems, analysis was carried out at 40 °C, except for IAM chromatography, in which oven temperature was set to 30 °C. The CHIIAM and CHI18 indices of the target sulfonamides derivatives were obtained using the protocol proposed by Valko and co-workers. C18 chromatography was performed on a Waters-C18 column (150 mm × 3.9 mm; 5.0 µm; Symmetry; USA), with a 1.5 mL/min flow rate. The mobile phase was ammonium acetate buffer (50 mM) at pH 7.4 and acetonitrile as an organic modifier. The linear gradient from 2 to 98% ACN was applied from 0 to 30 min. IAM chromatography was executed on an IAM.PC.DD2 column ([…] × 4.6 mm; 10.0 µm; Regis Technologies, Morton Grove, IL, USA) additionally equipped with an IAM guard column with the same flow rate of 1.5 mL/min. The mobile phase was sodium phosphate buffer (10 mM) at pH 7.4 and acetonitrile as the organic phase. The linear gradient from 0 to 85% was applied within 5.25 min.

[2] = C18 chromatography (RP-HPLC), chromatographic hydrophobicity index; assay type: physicochemical; details: for chromatographic logD: Waters Symmetry C18 column, CHI log D = 0.0525 CHIC18 − 1.467, pH 7.4; for CHIC18: pH 7.4, 40 °C, acetonitrile gradient
Source text: as §1, §2, §3

[3] = C8 chromatography (RP-HPLC), logkw from two gradients with DryLab; assay type: physicochemical; details: for logkw, Table S4: C8 chromatography, pH 7.4, short and long gradient; for logkwC8: pH 7.4, 40 °C, retention factor extrapolated to 0% organic modifier
Source text: as §1, §2
(§4) For C8, cyanopropyl, and phenyl chromatography, according to the assumption proposed by Snyder and co-workers, appropriate logkw values (i.e., the retention factor logk extrapolated to 0% organic modifier, as an alternative to logP) were obtained. […] Dwell volume for these HPLC systems was measured at 0.780 mL, whereas the obtained dead times for used HPLC columns were equal to 1.530 min, 1.252 min, and 2.335 min for C8, SB-CN, and UK-Phenyl, respectively. The mobile phase was ammonium acetate buffer (50 mM) at pH 7.4 and acetonitrile as an organic modifier in each system. C8 chromatography was performed on Unison UK-C8 column (150 × 2 mm; 3.0 µm. Imtakt; USA) with 0.3 mL/min flow rate. Analyses were carried out in linear gradient from 30 to 100% within 15 min in short gradient and 30 min in long gradient. The Agilent SB-CN column (150 × 4.6 mm; 3.5 µm; Zorbax; USA) was used for the cyanopropyl chromatography. The CN chromatography analyses were carried out in linear gradient from 20 to 100%, which was applied from 0 to 20 min in short gradient, and from 0 to 40 min in long gradient. The flow rate was 1.5 mL/min. The column Unison UK-Phenyl (150 × 2 mm; 3.0 µm; Imtakt; USA) was used to perform phenyl chromatography. The flow rate was set to 0.2 mL/min. The phenyl analyses were carried out in linear gradient from 40 to 100%, which was applied from 0 to 20 min in short gradient, and from 0 to 40 min in long gradient. Each HPLC analysis was run in triplicate; in Tables S2–S6, obtained retention times are listed, whereas representative chromatograms are shown in Figure 9.

[4] = Cyanopropyl (CN) chromatography, logkw from two gradients with DryLab; assay type: physicochemical; details: for logkw, Table S5: Cyanopropyl chromatography, pH 7.4, short and long gradient; for logkwCN: pH 7.4, 40 °C, retention factor extrapolated to 0% organic modifier
Source text: as §1, §2, §4

[5] = Phenyl (Ph) chromatography, logkw from two gradients with DryLab; assay type: physicochemical; details: for logkw, Table S6: Phenyl chromatography, pH 7.4, short and long gradient; for logkwPh: pH 7.4, 40 °C, retention factor extrapolated to 0% organic modifier
Source text: as §1, §2, §4

[6] = tested on: human colon cancer (HCT-116); design: method as in PMID 29772699, PMID 28122174, PMID 27338337, PMID 26506328; details: HCT-116 cell line; cited from earlier work

Structure (SMILES) | logkIAM ([1]; pH 7.4) | CHIIAM [1] | chromatographic logD [2] | CHIC18 [2] | logkw, Table S4 [3] | logkwC8 [3] | logkw, Table S5 [4] | logkwCN [4] | logkw, Table S6 [5] | logkwPh [5] | pIC50 [6] | CHI (CHIIAM), Table S2 ([1]; pH 7.4) | lipophilicity rank by the chromatographic experiments ([1]; based on the experimental data of all chromatographic systems, pH 7.4)
COc1ccc(-c2cnnc(NS(=O)(=O)c3cc(C(=O)Nc4ccc(C)cc4)c(Cl)cc3SCc3ccccc3)n2)cc1 [Compound 18] | 2.11 | 37.50 | 2.88 | 82.80 | 4.280 | 4.28 | 2.358 | 2.36 | 4.228 | 4.23 | 4.12 | – | –
Cc1cc(C)nc(NS(=O)(=O)c2ccc(-n3cccc3)cc2)n1 [Compound 7] | 1.51 | – | 1.88 | 63.80 | 3.300 | 3.30 | 1.780 | 1.78 | 2.810 | 2.81 | 4.16 | 24.3 | –
Cc1cc(S(=O)(=O)Nc2nnc(Cc3ccccc3)c(=O)[nH]2)c(SCc2cc3c(cc2Cl)OCO3)cc1Cl [Compound 11] | 2.02 | – | 2.75 | 80.30 | 4.074 | 4.07 | 2.130 | 2.13 | 3.824 | 3.82 | 4.06 | 35.5 | –
O=S(=O)(Nc1ccc(Cl)cc1)c1ccc(-n2cccc2)cc1 [Compound 6] | 2.46 | – | 3.5 | 94.70 | 4.609 | 4.61 | 2.892 | 2.89 | 5.391 | 5.39 | 4.15 | 45.4 | –
O=S(=O)(Nc1cccc2nsnc12)c1ccc(-n2cccc2)cc1 [Compound 5] | 1.83 | – | 2.89 | 82.90 | 4.055 | 4.06 | 2.300 | 2.30 | 4.079 | 4.08 | 4.64 | 31.4 | –
Cc1ccnc(NS(=O)(=O)c2ccc(-n3cccc3)cc2)n1 [Compound 1] | 1.28 | – | 1.51 | 56.70 | 2.980 | 2.98 | 1.580 | 1.58 | 2.620 | 2.62 | 4.34 | 19.2 | least lipophilic
COc1ccc(-c2cnnc(NS(=O)(=O)c3cc(C)c(Cl)cc3SCc3ccc(C(F)(F)F)cc3)n2)cc1 [Compound 25] | 2.09 | – | 2.96 | 84.40 | 4.260 | 4.26 | 2.330 | 2.33 | 3.886 | 3.89 | 4.17 | 37.2 | –
O=S(=O)(Nc1cccc2cccnc12)c1ccc(-n2cccc2)cc1 [Compound 2] | 2.45 | – | 3.65 | 97.50 | 4.682 | 4.68 | 4.040 | 4.04 | 6.221 | 6.22 | 6.00 | 45.0 | –
Cc1cc(S(=O)(=O)Nc2nncc(-c3cccc(F)c3)n2)c(SCc2cccc3ccccc23)cc1Cl [Compound 22] | 2.32 | – | 2.97 | 84.60 | 4.276 | 4.28 | 2.356 | 2.36 | 4.254 | 4.25 | 4.31 | 42.2 | –
COc1ccc(-c2cnnc(NS(=O)(=O)c3cc(C(=O)Nc4ccccc4)c(Cl)cc3SCc3ccccc3)n2)cc1 [Compound 14] | 2.03 | 35.80 | 2.68 | 78.90 | 4.130 | 4.13 | 2.020 | 2.02 | 4.310 | 4.31 | 4.11 | – | –
Cc1cc(S(=O)(=O)Nc2nnc(C)c(=O)[nH]2)c(SCc2cccc3ccccc23)cc1Cl [Compound 9] | 1.83 | – | 2.33 | 72.30 | 3.692 | 3.69 | 1.850 | 1.85 | 2.880 | 2.88 | 4.07 | 31.4 | –
Cc1ccc2cccnc2c1NS(=O)(=O)c1ccc(-n2cccc2)cc1 [Compound 3] | 2.31 | – | 3.51 | 94.80 | 4.593 | 4.59 | 2.966 | 2.97 | 5.556 | 5.56 | 4.72 | 42.0 | –
Cc1cc(S(=O)(=O)NC(=O)C=Cc2ccccc2)c(SCc2cccc3ccccc23)cc1Cl [Compound 27] | 2.20 | – | 2.37 | 73.10 | 4.279 | 4.28 | 2.313 | 2.31 | 4.460 | 4.46 | – | 39.6 | –
CC(=O)NS(=O)(=O)c1cc(C)c(Cl)cc1SCc1cccc2ccccc12 [Compound 26] | 1.80 | – | 2.95 | 84.10 | 3.655 | 3.66 | 1.763 | 1.76 | 2.870 | 2.87 | – | 30.6 | –
